# Test results published in patent US9272016B2, “Methods to enhance RNAi oligonucleotide delivery to respiratory epithelial cells” (University of Iowa Research Foundation, priority 2012, dated 2016).
# Where a SMILES comes first, the peptide text is derived from it. [ ]: non-standard residue; d: D form. Nle = CCCC[C@H](N)C(=O)O; d = 2'-deoxy (DNA); r = 2'-OH (RNA); {P} = phosphate
# Legend:
# Type in all cases: cell-based
# HPRT mRNA [1] = assay: Pretreatment of well differentiated pig airway epithelia before HPRT siRNA transfection, qPCR; conditions: for reduction in HPRT mRNA levels: 6 h drug pretreatment at Cmap or literature concentration, then siRNA-Transductin 24 h (data not shown); for silencing of HPRT mRNA after pretreatment: well differentiated PAE, KGF 50 ng/ml 24 h, EGTA 6 mM 30 m, LLnL 40 μM 24 hrs, then 250 nM HPRT siRNA with RNAiMAX or Transductin
# Method: (§1) For airway epithelia that were either well or poorly differentiated, transfection was done mostly according to the manufacturer's protocol. In all cases, the apical surface of epithelia was washed twice with PBS before adding the transfection mixture to the apical surface. The mixture was then left on the cells for 24 h for all transfection reagents. For PK1 cells, reverse transfection was performed in a 48-well plate by first adding the siRNA-RNAiMAX reagent mixture onto the plate and then adding the dispersed cells (40,000 cells) on top of the mixture and allowing the cells to adhere and establish growth for 24 h. Before some transfections, pretreatment of cells with various chemicals were performed: Keratinocyte Growth Factor (KGF; Prospec, East Brunswick, N.J.) 50 ng/ml added both apically and basolaterally for 24 h; EGTA 6 mM added apically for 30 m; N-Acetyl-L-Leucyl-L-Leucyl-L-Norleucinal (LLnL; ICN Biochemicals, Inc, Costa Mesa, Calif.) 40 μM added both apically and basolaterally for 24 hrs; human Epidermal Growth Factor (EGF; Sigma-Aldrich, St. Louis, Mo.) 100 μg/ml, added apically for 15 m.
# (§2) Total RNA was isolated using SV96 RNA isolation kit (Promega), according to manufacturer's protocol. Two hundred fifty ng of total RNA were reverse transcribed using oligo (dT) (Roche, Indianapolis, Ind.) and random hexamers (Invitrogen, Grand Island, N.Y.) and Superscript II (Invitrogen, Grand Island, N.Y.) according to manufacturer's instructions. One-fifteenth of the cDNA was then amplified and analyzed by Taqman assay in the 7900 Real Time PCR System (Applied Biosystems) using synthesized primer-probe pairs (IDT, Coralville, Iowa), reaction buffer and Immolase DNA polymerase (Bioline, Taunton, Mass.). The reaction mix was contained in a total volume of 10 μl and the reaction condition was an initial cycle of 95° C. for 10 min, then 40 cycles of 95° C. for 15 s and 60° C. for 1 min. All data were normalized to the internal standard, RPL4 mRNA for pig airway samples and SFRS9 mRNA for human airway samples. Absolute quantification of an mRNA target sequence within an unknown sample was determined by reference to a standard curve. The standard curve was based on the real-time PCR amplification of standard amounts of the specific gene in a control NC1 cDNA.
# (§3) Wortmannin was purchased from Sigma (St. Louis, Mo.) as a ready to use solution. […] Monensin was purchased from Sigma (St. Louis, Mo.) and was dissolved in water. For experiments with drugs, the cells were pre-treated with drugs for 6 h usually at a concentration that was used in the Cmap study (Lamb J et al., The connectivity map: Using gene-expression signatures to connect small molecules, genes, and disease. Science 2006; 313(5795):1929-1935) or in other published studies. After the drug treatment, the cells were transfected with siRNA as described before.
# HPRT mRNA [2] = assay: Pretreatment of well-differentiated human airway epithelia before HPRT siRNA transfection, qPCR; conditions: for reduction in HPRT mRNA levels: 6 h drug pretreatment at Cmap or literature concentration, then siRNA-Transductin 24 h (data not shown); for decrease in HPRT mRNA levels: vs nontargeting controls (FIG. 5c)
# Method: as §1, §2, §3
# IL-8 = IL-8 siRNA transfection of poorly differentiated pig airway epithelia (2 and 5 days old), qPCR; conditions: for silencing of IL-8: 250 ng siRNA with Transductin, 24 h (FIG. 11a); for knockdown of IL-8: poorly differentiated pig airway cultures, siRNA 250 ng, 24 h (FIG. 9a)
# Method: as §1
# as §2, with “cDNA. PCR efficiency for all reactions was within the acceptable margin of 90-110%. All the results of the samples were presented as remaining mRNA level in comparison to the mRNA level in the control samples (NC1), which was normalized to 100%.” for “cDNA.”
# pig HPRT = assay: Dicer-substrate siRNA silencing in PK1 cells, qPCR of HPRT mRNA; conditions: reverse transfection with RNAiMAX, 1 nM and 10 nM siRNA, 24 h, vs nontargeting control NC1
# Method: (§4) For airway epithelia that were either well or poorly differentiated, transfection was done mostly according to the manufacturer's protocol. In all cases, the apical surface of epithelia was washed twice with PBS before adding the transfection mixture to the apical surface. The mixture was then left on the cells for 24 h for all transfection reagents. For PK1 cells, reverse transfection was performed in a 48-well plate by first adding the siRNA-RNAiMAX reagent mixture onto the plate and then adding the dispersed cells (40,000 cells) on top of the mixture and allowing the cells to adhere and establish growth for 24 h. […]
# (§5) Total RNA was isolated using SV96 RNA isolation kit (Promega), according to manufacturer's protocol. […] One-fifteenth of the cDNA was then amplified and analyzed by Taqman assay in the 7900 Real Time PCR System (Applied Biosystems) using synthesized primer-probe pairs (IDT, Coralville, Iowa), reaction buffer and Immolase DNA polymerase (Bioline, Taunton, Mass.). […] Absolute quantification of an mRNA target sequence within an unknown sample was determined by reference to a standard curve. […]
# siRNAs were designed and synthesized to specifically target pig HPRT (ssHPRT) and IL-8 (IL-8 1098 and IL-8 1466). […] Quantitative real-time PCR was performed to measure the extent of mRNA reduction. […]
# human airway epithelia = assay: Confocal imaging of DIG-labeled siRNA uptake in human airway epithelia; conditions: cells transfected with DIG-siRNA, fluorescent images, species not stated (data not shown)
# Method: The primary human airway epithelia grown at air-liquid interface were transfected with the DIG-labeled siRNA at a concentration of 250 ng/ml after complexing with Transductin. The transfection mixture was left on the apical surface for 2 h. At the end of this period, the cells were fixed in 2% formaldehyde, permeabilized in 0.2% Triton-x-100 and blocked in 1% BSA for 1 h. The cells were then stained with mouse antibody to DIG (Roche Biochemicals) for 1 h followed by either Alexa 488 labeled goat anti-mouse secondary antibody for 1 h followed by Alexa 488 labeled rabbit […] antibody (Invitrogen) for 1 or in some cases with Alexa 564 goat anti-mouse secondary antibody for 1 h. The cells were finally stained with nuclear stain, ToPro 3 for 10 minutes. The filter, containing the cells, was removed from the culture insert by cutting the edges with razor blade and then mounted onto a slide by the use of Vectashield. The slide was visualized by confocal microscopy.
# CFTR = assay: LY-294002 pretreatment of human airway cells before CFTR siRNA transfection, qPCR; set-up: dose or concentration left out as unconfirmed; conditions: siRNA with Transductin, 24 h, vs nontargeting control (FIG. 12b)
# Method: as §4, §5
# (§6) Wortmannin was purchased from Sigma (St. Louis, Mo.) as a ready to use solution. […]
# SIN3A = assay: LY-294002 pretreatment of human airway cells before SIN3A siRNA transfection, qPCR; set-up: dose or concentration left out as unconfirmed; conditions: siRNA with Transductin, 24 h, vs nontargeting control (FIG. 12a)
# Method: as §4, §5, §6
compound,measurement,setting,value
C=C1CC[C@H](O)C/C1=C/C=C1\CCC[C@]2(C)[C@@H]([C@H](C)/C=C/[C@H](C)C(C)C)CC[C@@H]12 [ergocalciferol],reduction in HPRT mRNA levels,HPRT mRNA [1]; pig epithelia,no reduction
same,reduction in HPRT mRNA levels,HPRT mRNA [2]; human epithelia,no reduction
CC(=O)O[C@H]1C(=O)[C@@]2(C)[C@H]([C@H](OC(=O)c3ccccc3)[C@]3(O)C[C@H](OC(=O)[C@H](O)[C@@H](NC(=O)c4ccccc4)c4ccccc4)C(C)=C1C3(C)C)[C@]1(OC(C)=O)CO[C@@H]1C[C@@H]2O [paclitaxel],reduction in HPRT mRNA levels,HPRT mRNA [1]; pig epithelia,no reduction
same,reduction in HPRT mRNA levels,HPRT mRNA [2]; human epithelia,no reduction
"IL-8 1098: Dicer-substrate siRNA against pig IL-8, SEQ ID NO: 5 and 6 (chain 1 GGCAAAUUGUUAAACGAACAGAATA; chain 2 UAUUCUGUUCGUUUAACAAUUUGCCAA; chain 1: sugars from the 5' end r23 d2, 5' {P}, backbone not given here; chain 2: RNA, backbone not given here)",silencing of IL-8,IL-8; 2-day old pig airway epithelia,Silencing of IL-8 is seen
same,silencing of IL-8,IL-8; 5-day old pig airway epithelia,not in 5-day old epithelia
same,knockdown of IL-8,IL-8,Knockdown of IL-8 is seen
"ssHPRT: Dicer-substrate siRNA against pig HPRT, SEQ ID NO: 1 and 2 (chain 1 CCAGUAAAGUUAUCACAUGUUCUAG; chain 2 CUAGAACAUGUGAUAACUUUACUGNGG; chemistry not fully specified)",decrease of targeting mRNA (HPRT),pig HPRT,more than 90%
O=C1CC[C@@]2(O)[C@H]3Cc4ccc(O)c5c4[C@@]2(CCN3CC2CC2)[C@H]1O5 [naltrexone],reduction in HPRT mRNA levels,HPRT mRNA [1]; pig epithelia,no reduction
same,reduction in HPRT mRNA levels,HPRT mRNA [2]; human epithelia,no reduction
"O=c1cc(N2CCOCC2)oc2c(-c3ccccc3)cccc12 [LY-294002, 2-morpholin-4-yl-8-phenylchromen-4-one]",siRNA uptake,human airway epithelia,improved siRNA uptake
same,range of silencing effects (inhibition),"HPRT mRNA [1]; pig airway cells, several donors (data not shown)",10-20%
same,silencing of HPRT,"HPRT mRNA [1]; pig epithelia, 10 μM for 6 h apically, vs nontargeting control (FIG. 5b)",about 20%
same,range of silencing effects (inhibition),"HPRT mRNA [2]; human airway cells, several donors (data not shown)",10-55%
same,silencing of HPRT,"HPRT mRNA [2]; human epithelia, 10 μM for 6 h apically, vs nontargeting control (FIG. 5a)",about 40%
same,reduction in mRNA levels of CFTR,CFTR,20%
same,reduction in mRNA levels of SIN3A,SIN3A,25%
COC[C@H]1OC(=O)c2coc3c2[C@@]1(C)C1=C(C3=O)[C@@H]2CCC(=O)[C@@]2(C)C[C@H]1OC(C)=O [wortmannin],decrease in HPRT mRNA levels,"HPRT mRNA [2]; human airway cells, 10 nM pretreatment",about 20%
same,decrease in HPRT mRNA levels,"HPRT mRNA [2]; human airway cells, 40 nM pretreatment",~30%
O=C(O)CN(CCOCCOCCN(CC(=O)O)CC(=O)O)CC(=O)O [EGTA],silencing of HPRT mRNA after pretreatment,HPRT mRNA [1],did not result in silencing
"IL-8 1466: Dicer-substrate siRNA against pig IL-8, SEQ ID NO: 7 and 8 (chain 1 UGAGUGUAACUAUAGAACAUUUACA; chain 2 UGUAAAUGUUCUAUAGUUACACUCACA; chain 1: sugars from the 5' end r23 d2, 5' {P}, backbone not given here; chain 2: RNA, backbone not given here)",silencing of IL-8,IL-8; 2-day old pig airway epithelia,Silencing of IL-8 is seen
same,silencing of IL-8,IL-8; 5-day old pig airway epithelia,not in 5-day old epithelia
same,knockdown of IL-8,IL-8,Knockdown of IL-8 is seen
"CCCC[C@@H](C=O)NC(=O)[C@H](CC(C)C)NC(=O)[C@H](CC(C)C)NC(C)=O [LLnL, N-Acetyl-L-Leucyl-L-Leucyl-L-Norleucinal] (Ac-Leu-Leu-[Nle]-aldehyde)",silencing of HPRT mRNA after pretreatment,HPRT mRNA [1],no effect on silencing
O=S(=O)(c1cccc2cnccc12)N1CCCNCC1 [fasudil],reduction in HPRT mRNA levels,HPRT mRNA [1]; pig epithelia,no reduction
same,reduction in HPRT mRNA levels,HPRT mRNA [2]; human epithelia,no reduction
